One series relates to Bcl-2. Briefly: qRT-PCR gene expression, Bcl-2. Type of series: cell-based, human. The conditions noted are these: MCF-7, 7.653 μM, 24 h. The method, then:
Untreated cells served as negative controls. RNA concentration and purity were verified spectrophotometrically prior to cDNA synthesis. Complementary DNA (cDNA) was synthesized from purified RNA using the RT^2 First Strand Kit (Qiagen, Valencia, CA, USA) following the supplied protocol. Quantitative real-time PCR (qRT-PCR) was performed on a Corbett Rotor-Gene 6000 system (Qiagen, USA) using the RT^2 SYBR® Green ROX™ FAST Master Mix (Qiagen). Each 25 μL reaction contained 12.5 μL of master mix, 1 μL of gene-specific primers (RT^2 qPCR Primer Assays, Qiagen), 1 μL of cDNA template, and 10.5 μL of RNase-free water. Gene-specific primers were selected using the PrimerBank database for BAX, BCL2, and TP53, along with GAPDH as the endogenous control (Table S3). Thermal cycling conditions were set as follows: initial enzyme activation at 95 °C for 10 minutes, followed by 40 cycles of denaturation at 95 °C for 15 seconds, and annealing at 60 °C for 30 seconds. Amplification specificity was confirmed by melting curve analysis. Gene expression levels were normalized to GAPDH mRNA as the internal reference, and relative quantification was performed using the ΔΔCt method. […] Statistical analysis was performed using GraphPad Prism software, with p < 0.05 considered statistically significant.[79]
In general terms: Quantitative PCR measures a nucleic acid by following its amplification.

The nature of series [1]: FRAP (ferric reducing antioxidant power) assay. The settings on record: 37 °C, 60 min. As for the experimental part:
The resulting Fe^2+ forms a colored complex with the FRAP chromogenic probe, which can be quantitatively measured. The reaction mixture was prepared by combining FRAP assay buffer, FRAP probe, and FeCl3 solution as per the manufacturer's protocol. […] Absorbance was measured at 594 nm using a microplate reader after incubation at 37 °C for 60 minutes. Antioxidant activity was determined by comparing the absorbance of the samples to a standard curve generated using known concentrations of the ferrous standard provided in the kit.

The subject of a further series is α-tubulin. The experiment in a line: Western blot of α-tubulin in MCF-7 cells. The conditions noted are these: MCF-7, 7.653 μM (IC50). Type of series: cell-based, human. As for the experimental part:
Cells were lysed in RIPA buffer (Thermo Scientific, Cat. #89900) containing protease and phosphatase inhibitors, and lysates were centrifuged at 12 000 × g for 15 min at 4 °C. Protein concentrations were determined using the BCA assay (Thermo Scientific, Cat. #23225), and equal amounts (20–50 μg) were mixed with 2× Laemmli sample buffer (Bio-Rad, Cat. #1610737) and denatured at 95 °C for 5 min. Proteins were separated on SDS-PAGE gels (8–10% for α-tubulin, 12% for β-actin; Bio-Rad TGX™, Cat. #456-9033) and transferred to PVDF membranes (Immobilon-P, Millipore, Cat. #IPVH00010) using a wet transfer system (100 V, 1 h, 4 °C). Membranes were blocked with 5% non-fat milk in TBST for 1 h at room temperature and incubated overnight at 4 °C with anti-α-tubulin (1 : 1000, Cell Signaling Technology, Cat. #3873) and anti-β-actin (1 : 5000, Sigma-Aldrich, Cat. #A5441) antibodies. After washing, membranes were incubated with HRP-conjugated secondary antibodies ([…], Cell Signaling Technology) for 1 h at room temperature. Protein bands were visualized using the SuperSignal™ West Pico/Femto ECL substrate (Thermo Scientific, Cat. #34095) and imaged with a Bio-Rad ChemiDoc system. Band intensities were quantified by densitometry using ImageJ software and normalized to β-actin levels.[82–84]
Background: Immunoblotting shows a protein as a band on a membrane.

The target in the next series is T1, COX-1 (Ovis aries, UniProt P05979).
T1 construct: purchased BioVision K548-100
T1 sequence (P05979 25-600): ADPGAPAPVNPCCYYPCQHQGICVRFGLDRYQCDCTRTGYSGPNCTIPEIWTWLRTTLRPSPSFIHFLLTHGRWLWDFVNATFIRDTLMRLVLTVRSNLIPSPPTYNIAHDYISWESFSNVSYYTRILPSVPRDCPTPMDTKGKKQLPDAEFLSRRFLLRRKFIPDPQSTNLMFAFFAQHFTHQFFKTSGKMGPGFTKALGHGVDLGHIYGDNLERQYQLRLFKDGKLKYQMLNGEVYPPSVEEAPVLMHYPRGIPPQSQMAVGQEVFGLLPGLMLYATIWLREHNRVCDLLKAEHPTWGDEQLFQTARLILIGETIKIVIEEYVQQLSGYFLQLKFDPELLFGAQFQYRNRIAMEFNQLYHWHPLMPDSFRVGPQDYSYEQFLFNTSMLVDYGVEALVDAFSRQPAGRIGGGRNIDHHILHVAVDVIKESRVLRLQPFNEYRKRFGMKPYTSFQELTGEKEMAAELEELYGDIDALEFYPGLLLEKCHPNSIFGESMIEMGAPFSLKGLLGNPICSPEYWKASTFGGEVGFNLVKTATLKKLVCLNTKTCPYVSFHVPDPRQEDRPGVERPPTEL
The experiment in a line: COX-1 inhibitor screening (fluorometric). The conditions noted are these: read-out: IC50 toward COX-1. The series is classed as biochemical. As for the experimental part:
COX-1 and COX-2 enzymes were reconstituted in sterile water (110 μL) and kept on ice until use. Arachidonic acid was activated by mixing 5 μL with 5 μL of NaOH, followed by a 10-fold dilution with water and vortexing. A reaction mixture (80 μL per well) was prepared by combining 76 μL of assay buffer, 1 μL of COX probe, 2 μL of 200-fold diluted COX cofactor, and 1 μL of COX-1 or COX-2 enzyme. This mix was added to each well, followed by 10 μL of the prepared arachidonic acid/NaOH solution to initiate the reaction. Fluorescence was recorded at 25 °C using a microplate reader. The percent inhibition was determined by comparing the fluorescence increase in treated wells relative to the enzyme control. IC50 values were calculated from the concentration–response curves using GraphPad Prism.

Series [2] is described as follows: Liver histopathology (H&E).
Description: Additionally, liver and kidney tissues were excised from each animal for further evaluation. […] The second portion was fixed in 10% neutral buffered formalin for histopathological examination to assess tissue morphology and damage.[96,97]
Liver and kidney tissues were collected from all experimental groups at the end of the study and immediately fixed in 10% neutral buffered formalin. After fixation, the samples were dehydrated, embedded in paraffin, and sectioned at a thickness of 5 μm using a rotary microtome. […] Histopathological examination of renal tissue focused on identifying acute tubular injury (ATI), characterized by tubular epithelial cell flattening, necrosis, apical vacuolization, and loss of the brush border. These features were assessed using a semi-quantitative scoring system.[110] Hepatic tissue sections were evaluated for the severity of hepatocellular injury using a modified Brunt grading system, which includes assessment of hepatocyte ballooning, necrosis, inflammation, and other degenerative changes.

“And” between values parts separate entries of the source, which are not always exact repeats. Identical values can stand only once.

As a reminder, the IC50 is the concentration needed to halve the response being measured.

With `CCOC(=O)/C(C#N)=C/c1ccc(Oc2c(C)c3cc(Br)c(O)c(Br)c3[nH]c2=O)cc1` [Compound 7, ethyl (E)-2-cyano-3-(4-((6,8-dibromo-7-hydroxy-4-methyl-2-oxo-1,2-dihydroquinolin-3-yl)oxy)phenyl)acrylate], the “Bcl-2 expression relative to untreated control” value with Bcl-2 was 0.312 fold. In addition, the IC50 in series [1] is 145 µM; on COX-1 it was 7.49 µM and 7.5 µM. Besides, in the series with α-tubulin, the “reduction of α-tubulin protein expression vs untreated control” value was found to be 2.7 fold. Also, the hepatocyte hydropic degeneration result in series [2] (EAC + compound 7, EAC group approximately 45%) is on record as “around 15%”. The portal inflammation grade was determined as 2 in series [2] (EAC + compound 7, EAC group grade 3) and 2 in series [2] (compound 7 only, no EAC). Further, the liver pathology score in series [2] (EAC + compound 7, EAC group score 7, untreated 0) worked out at 3; in series [2] (compound 7 only, no EAC, untreated 0), 4. Further, the lobular inflammation grade in series [2] (compound 7 only, no EAC) was found to be 1.

For the origin of these results see PMC12461739, “Multi-targeted azacoumarin–cyanocinnamate hybrids induce G2/M arrest and apoptosis via tubulin, and COX-2/VEGFR modulation: insights from in vitro mechanistic basis and in vivo validation” (RSC Medicinal Chemistry, 2025).
